Test results: the supplement of paper PMC13380429

Assays:
Conditions in all cases: 72 h
Caco-2 [1] = experiment: cell viability relative to DMSO; higher = less toxic
Calu-3 [2] = experiment: as above
HepG2 [3] = experiment: as above
Vero E6 [4] = experiment: as above
Caco-2 [5] = experiment: relative viability EC50 (midpoint between 100% and the lowest measured viability); higher = less toxic
Calu-3 [6] = experiment: as above
HepG2 [7] = experiment: as above
Vero E6 [8] = experiment: as above
Caco-2 [9] = experiment: drug sensitivity score (DSS) for viability; higher = more toxic; extreme values may be limits of the assay
Calu-3 [10] = experiment: as above
HepG2 [11] = experiment: as above
Vero E6 [12] = experiment: as above
U2OS [13] = experiment: cell viability relative to DMSO; higher = less toxic
U2OS [14] = experiment: drug sensitivity score (DSS) for viability; higher = more toxic; extreme values may be limits of the assay
U2OS [15] = experiment: relative viability EC50 (midpoint between 100% and the lowest measured viability); higher = less toxic

| Compound | cell viability (Caco-2 [1]; 1 nM) [%] | cell viability (Caco-2 [1]; 10 nM) [%] | cell viability (Caco-2 [1]; 100 nM) [%] | cell viability (Caco-2 [1]; 1000 nM) [%] | cell viability (Caco-2 [1]; 10000 nM) [%] | cell viability (Calu-3 [2]; 1 nM) [%] | cell viability (Calu-3 [2]; 10 nM) [%] | cell viability (Calu-3 [2]; 100 nM) [%] | cell viability (Calu-3 [2]; 1000 nM) [%] | cell viability (Calu-3 [2]; 10000 nM) [%] | cell viability (HepG2 [3]; 1 nM) [%] | cell viability (HepG2 [3]; 10 nM) [%] | cell viability (HepG2 [3]; 100 nM) [%] | cell viability (HepG2 [3]; 1000 nM) [%] | cell viability (HepG2 [3]; 10000 nM) [%] | cell viability (Vero E6 [4]; 1 nM) [%] | cell viability (Vero E6 [4]; 10 nM) [%] | cell viability (Vero E6 [4]; 100 nM) [%] | cell viability (Vero E6 [4]; 1000 nM) [%] | cell viability (Vero E6 [4]; 10000 nM) [%] | relative viability EC50 (Caco-2 [5]) [µM] | relative viability EC50 (Calu-3 [6]) [µM] | relative viability EC50 (HepG2 [7]) [µM] | relative viability EC50 (Vero E6 [8]) [µM] | drug sensitivity score (Caco-2 [9]) | drug sensitivity score (Calu-3 [10]) | drug sensitivity score (HepG2 [11]) | drug sensitivity score (Vero E6 [12]) | cell viability (U2OS [13]; 1 nM) [%] | cell viability (U2OS [13]; 10 nM) [%] | cell viability (U2OS [13]; 100 nM) [%] | cell viability (U2OS [13]; 1000 nM) [%] | cell viability (U2OS [13]; 10000 nM) [%] | drug sensitivity score (U2OS [14]) | relative viability EC50 (U2OS [15]) [µM] |
| --- | --- | --- | --- | --- | --- | --- | --- | --- | --- | --- | --- | --- | --- | --- | --- | --- | --- | --- | --- | --- | --- | --- | --- | --- | --- | --- | --- | --- | --- | --- | --- | --- | --- | --- | --- |
| O=C(Cc1ccc(-c2ccccc2)cc1)Nc1ccccn1 [difenpiramide] | 98.4 | 107 | 100 | 107 | 82.9 | 107 | 99.3 | 96.9 | 96.4 | 102 | 117 | 118 | 109 | 110 | 43.6 | 106 | 111 | 104 | 103 | 98.5 | > 10 | > 10 | 3.89 | > 10 | 0.2 | 0 | 2.4 | 0 | – | – | – | – | – | – | – |
| CC(=O)N1CCN(CCOc2ccc(C3CCN(C4=Nn5c(nnc5C(F)(F)F)CC4)CC3)cc2)CC1 [AZD3514] | 90.2 | 99.3 | 93.7 | 98.3 | 75.9 | 98.2 | 96.1 | 89.4 | 107 | 91 | 88.9 | 95.9 | 82.4 | 91.4 | 43.2 | 104 | 98.3 | 92.2 | 90.7 | 59.1 | > 10 | > 10 | 1.97 | – | 1.1 | 0 | 4.5 | 3.4 | 99.8 | 94 | 99.4 | 94.9 | 69.9 | 2.1 | – |
| Cc1cc(CCCOc2c(C)cc(-c3noc(C(F)(F)F)n3)cc2C)on1 [pleconaril] | 96.6 | 102 | 103 | 102 | 105 | 97.8 | 93.7 | 96 | 90.3 | 93.9 | 98.6 | 94.2 | 102 | 103 | 112 | 94.2 | 96.8 | 91.6 | 92.5 | 98 | > 10 | > 10 | > 10 | > 10 | 0 | 0 | 0 | 0 | – | – | – | – | – | – | – |
| CC(C)CC(=O)Nc1n[nH]c2c1CN(C(=O)C1CCN(C)CC1)C2(C)C | 99.1 | 98.9 | 85.6 | 76.9 | 51 | 98.7 | 90.7 | 93.6 | 89.6 | 37.6 | 103 | 115 | 102 | 51.9 | 9.7 | 103 | 106 | 104 | 100 | 85.7 | – | 1.89 | 0.95 | > 10 | 5.8 | 5.2 | 10.9 | 0.2 | 101 | 102 | 94 | 68.7 | 15 | 8.5 | 1.32 |
| CC(=O)NC1=NN(C(C)=O)[C@](C)(c2ccccc2)S1 [K-858] | 106 | 102 | 91.3 | 102 | 71 | 108 | 93 | 96.3 | 101 | 91.5 | 98.8 | 101 | 98.7 | 106 | 39.2 | 103 | 103 | 99 | 96.2 | 42.2 | – | > 10 | 3.65 | 2.63 | 1.1 | 0 | 2.9 | 3.7 | 97 | 96.5 | 97.6 | 98.3 | 63.9 | 2 | – |
| CC(=O)c1cc([N+](=O)[O-])c(Sc2cccc(Cl)c2Cl)s1 [P5091] | 100 | 90 | 98.8 | 87.2 | 52.1 | 110 | 93.3 | 93.5 | 96.9 | 106 | 95.7 | 97.9 | 93.3 | 105 | 93.7 | 99.4 | 97.5 | 97.2 | 99.7 | 90.4 | – | > 10 | > 10 | > 10 | 4.5 | 0 | 0 | 0 | 95.9 | 97.3 | 97.9 | 96.9 | 60.4 | 2.4 | – |
| O=C1CCc2ccc(OCCCCN3CCN(c4cccc(Cl)c4Cl)CC3)cc2N1 [aripiprazole] | 112 | 78 | 94.6 | 90.5 | 70.8 | 98.5 | 98.5 | 104 | 91.9 | 83.3 | 109 | 105 | 98.6 | 100 | 77.5 | 94.1 | 97.6 | 93.7 | 96.3 | 88.2 | – | > 10 | > 10 | > 10 | 2.3 | 1.1 | 0.8 | 0 | 102 | 103 | 103 | 103 | 89.2 | 0 | > 10 |
| Cc1cc2sc(NC(=O)Cc3ccccc3)nc2cc1Cl [LH846] | 95.8 | 93.3 | 101 | 110 | 101 | 115 | 105 | 110 | 100 | 92.7 | 98.7 | 119 | 103 | 102 | 108 | 96.5 | 99.2 | 98 | 93.5 | 107 | > 10 | > 10 | > 10 | > 10 | 0 | 0 | 0 | 0 | – | – | – | – | – | – | – |
